Experiments:
[1] = Dissolution study of capsule formulation (USP Type 1); format: physicochemical; conditions: 0.1 N hydrochloric acid; for % Dissolved: 100 rpm
Procedure: The dissolution rate of carvedilol dihydrogen phosphate monohydrate as a capsule formulation was compared with that of carvedilol phosphate hemihydrate similarly prepared.
The samples for the dissolution study were prepared as follows:
Carvedilol phosphate, 25.0 mg, was accurately weighed along with lactose and other fillers. The mix was filled inside a colorless gelatin capsule shell, size #2. Six such capsules were subjected to dissolution studies, each for the monohydrate and hemi-hydrate material.
The intrinsic solubility of the monohydrate form versus the hemihydrate form of carvedilol is done using the general guidelines for characterizing the dissolution rate as per the United States Pharmacopoeia.
The dissolution conditions were:
Medium: 0.1 N hydrochloric acid, 900 ml
Speed of rotations: 100 per minute.
Temp: 37 degree±0.05 degrees.
The percent dissolved: was determined by UV spectrophotometry at a wavelength of 280 nm.

[2] = Hydrate stability: drying at 110° C. and re-exposure to 75% relative humidity at 37° C.; format: physicochemical
Procedure: The carvedilol dihydrogen phosphate monohydrate prepared by the present processes is dried till constant weight for 4-10 hours at 40-45° C. under vacuum to obtain carvedilol dihydrogen phosphate monohydrate having bound water content in the range of 3.0-4.0% wt/wt; the theoretical moisture content for carvedilol dihydrogen phosphate monohydrate is 3.54% wt/wt. Further, the bound water content was removed by drying the material at 110° C. till the moisture content below 0.5%. The original moisture content was regained after about 10-15 hours when exposed to 75% relative humidity at 37° C. (in air).

[3] = 10 min, 25.0 mg capsule, 900 ml, 37 degree
[4] = 20 min, 25.0 mg capsule, 900 ml, 37 degree
[5] = 30 min, 25.0 mg capsule, 900 ml, 37 degree
[6] = 45 min, 25.0 mg capsule, 900 ml, 37 degree
[7] = 60 min, 25.0 mg capsule, 900 ml, 37 degree

Compound	% Dissolved [1, 3]	% Dissolved [1, 4]	% Dissolved [1, 5]	% Dissolved [1, 6]	% Dissolved [1, 7]	% Dissolved ([1]; 90 min, 25.0 mg capsule, 900 ml, 37 degree, Phosphate Hemihydrate)	% Dissolved ([1]; 90 min, 25.0 mg capsule, 900 ml, 37 degree, listed as hemihydrate form, Phosphate Hemihydrate)	Time to regain original moisture content ([2]; after drying at 110° C. to moisture below 0.5%, exposed to 75% relative humidity at 37° C. (in air))	Stability of hydrate form ([2]; drying at 110° C., then 75% relative humidity at 37° C. (in air))	Time to complete dissolution ([1]; 25.0 mg capsule, 900 ml, 37 degree)	% Dissolved ([1]; 90 min, 25.0 mg capsule, 900 ml, 37 degree)	Rate of dissolution compared with hemihydrate form ([1]; capsule)
Carvedilol Dihydrogen Phosphate Hemihydrate [Hemihydrate form, reference compound]	45.95%	63.75%	68.43%	75.99%	82.68%	88.95%	less than 90%					
COc1ccccc1OCCNCC(O)COc1cccc2[nH]c3ccccc3c12.O=P(O)(O)O (centres unmarked) [Monohydrate form, 1-(9H-carbazol-4-yloxy)-3-[[2-(2-methoxyphenoxy)ethyl]amino]-propan-2-ol]	46.20%	68.28%	82.45%	95.89%	96.81%			10 to 15 h	stable and does not convert into the dihydrate or hemihydrate form	≤ 90 min	101.55%	faster rate of dissolution than the hemihydrate form

Source: patent US7763645B2, “Carvedilol dihydrogen phosphate monohydrate” (Wanbury Limited, priority 2008, dated 2010)
